Assays:
Assay in all cases: relative viability (nuclei count vs DMSO), 5 days (fraction); higher = more cells survive
AZ505 + Lapatinib = compound: C1CCC(CC1)N(CCNCCC2=C3C(=C(C=C2)O)NC(=O)CO3)C(=O)CCNCCC4=CC(=C(C=C4)Cl)Cl [AZ505] + CS(=O)(=O)CCNCc1ccc(-c2ccc3ncnc(Nc4ccc(OCc5cccc(F)c5)c(Cl)c4)c3c2)o1 [Lapatinib] (partner 2 µM)
Outline: (§1)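 Cells from lung cancer lines were seeded into 1536-well plates and, one day later, dosed by pin tool. Treatments were either a single drug or a fixed dose of an anchor drug with five library-drug doses (not always all listed) in √10 steps. After 5 days, nuclei were stained in a one-step fixation (final 0.05% Triton X-100, 1% formaldehyde, 1 ug/ml Hoechst) and counted on 4× images, and relative viability is the treated-to-vehicle nuclei ratio, as the median of duplicate plates.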

Dactolisib + Tozasertib = compound: Cn1c(=O)n(-c2ccc(C(C)(C)C#N)cc2)c2c3cc(-c4cnc5ccccc5c4)ccc3ncc21 [Dactolisib] + Cc1cc(Nc2cc(N3CCN(C)CC3)nc(Sc3ccc(NC(=O)C4CC4)cc3)n2)n[nH]1 [Tozasertib] (partner 0.1 µM)
Outline: as §1

Dactolisib + Alpelisib = compound: Cn1c(=O)n(-c2ccc(C(C)(C)C#N)cc2)c2c3cc(-c4cnc5ccccc5c4)ccc3ncc21 [Dactolisib] + Cc1nc(NC(=O)N2CCC[C@H]2C(N)=O)sc1-c1ccnc(C(C)(C)C(F)(F)F)c1 [Alpelisib] (partner 2 µM)
Outline: as §1

Dactolisib + Olaparib = compound: Cn1c(=O)n(-c2ccc(C(C)(C)C#N)cc2)c2c3cc(-c4cnc5ccccc5c4)ccc3ncc21 [Dactolisib] + O=C(c1cc(Cc2n[nH]c(=O)c3ccccc23)ccc1F)N1CCN(C(=O)C2CC2)CC1 [Olaparib] (partner 8 µM)
Outline: as §1

Cell Line | relative viability (AZ505 + Lapatinib; first compound 0.08 µM) | relative viability (AZ505 + Lapatinib; first compound 0.253 µM) | relative viability (AZ505 + Lapatinib; first compound 0.8 µM) | relative viability (AZ505 + Lapatinib; first compound 2.53 µM) | relative viability (AZ505 + Lapatinib; first compound 8 µM) | relative viability (Dactolisib + Tozasertib; first compound 0.002 µM) | relative viability (Dactolisib + Tozasertib; first compound 0.006325 µM) | relative viability (Dactolisib + Tozasertib; first compound 0.02 µM) | relative viability (Dactolisib + Tozasertib; first compound 0.06325 µM) | relative viability (Dactolisib + Tozasertib; first compound 0.2 µM) | relative viability (Dactolisib + Alpelisib; first compound 0.002 µM) | relative viability (Dactolisib + Alpelisib; first compound 0.006325 µM) | relative viability (Dactolisib + Alpelisib; first compound 0.02 µM) | relative viability (Dactolisib + Alpelisib; first compound 0.06325 µM) | relative viability (Dactolisib + Alpelisib; first compound 0.2 µM) | relative viability (Dactolisib + Olaparib; first compound 0.002 µM) | relative viability (Dactolisib + Olaparib; first compound 0.006325 µM) | relative viability (Dactolisib + Olaparib; first compound 0.02 µM) | relative viability (Dactolisib + Olaparib; first compound 0.06325 µM) | relative viability (Dactolisib + Olaparib; first compound 0.2 µM)
LOU-NH91 | 0.753 | 0.724 | 0.761 | 0.84 | 0.779 | 0.645 | 0.655 | 0.683 | 0.616 | 0.449 | 0.623 | 0.665 | 0.669 | 0.496 | 0.471 | 0.832 | 0.901 | 0.886 | 0.608 | 0.632
LU99A | 0.915 | 0.965 | 0.931 | 1.04 | 1.01 | 0.265 | 0.257 | 0.283 | 0.224 | 0.185 | 0.483 | 0.333 | 0.273 | 0.242 | 0.192 | 0.208 | 0.232 | 0.216 | 0.181 | 0.172
LXF-289 | 0.876 |  | 0.869 | 0.857 | 0.869 | 0.236 | 0.189 | 0.226 | 0.182 | 0.136 | 1.12 | 0.973 | 1.01 | 0.927 | 0.597 | 1.21 | 0.986 | 1 | 0.973 | 0.695
NCI-H23 | 1.02 |  | 0.984 | 1.23 | 1.15 | 0.346 | 0.399 | 0.318 | 0.208 | 0.178 | 0.629 | 0.607 | 0.615 | 0.356 | 0.303 | 0.266 | 0.254 | 0.239 | 0.223 | 0.161
NCI-H322M | 0.535 | 0.539 | 0.611 | 0.475 | 0.576 | 0.386 | 0.46 | 0.414 | 0.412 | 0.37 | 0.899 | 0.839 | 0.8 | 0.609 | 0.511 | 0.752 | 0.789 | 0.774 | 0.719 | 0.674
NCI-H358 | 0.408 | 0.474 | 0.416 | 0.371 | 0.435 | 0.114 | 0.0941 | 0.0945 | 0.0839 | 0.0896 | 0.951 | 0.786 | 0.718 | 0.3 | 0.18 | 0.675 | 0.557 | 0.552 | 0.478 | 0.169
NCI-H460 | 0.874 | 1.1 | 0.877 | 0.922 | 1.07 | 0.38 | 0.396 | 0.387 | 0.257 | 0.139 | 0.723 | 0.352 | 0.35 | 0.0712 | 0.0542 | 0.256 | 0.45 | 0.423 | 0.341 | 0.335
NCI-H520 | 0.799 | 0.828 | 0.761 | 0.895 | 0.983 | 0.425 | 0.468 | 0.365 | 0.196 | 0.218 | 1.11 | 0.657 | 0.753 | 0.263 | 0.194 | 0.328 | 0.308 | 0.284 | 0.144 | 0.128
NCI-H596 | 0.977 | 0.94 | 0.885 | 0.876 | 1.05 | 0.942 | 0.751 | 0.632 | 0.35 | 0.32 | 0.461 | 0.474 | 0.386 | 0.322 | 0.259 | 0.656 | 0.719 | 0.527 | 0.417 | 0.329
NCI-H647 | 1.03 | 1.11 | 1.01 | 1.03 | 1.17 | 0.265 | 0.235 | 0.19 | 0.099 | 0.112 | 1.33 | 0.811 | 0.543 | 0.164 | 0.125 | 0.54 | 0.349 | 0.315 | 0.129 | 0.0846
NCI-H650 | 0.849 | 0.925 | 1.18 | 1.06 | 1.06 | 0.713 | 0.651 | 0.711 | 0.608 | 0.408 | 1.19 | 0.964 | 1.01 | 0.46 | 0.507 | 0.552 | 0.378 | 0.437 | 0.312 | 0.195
NCI-H661 | 0.468 | 0.502 | 0.447 | 0.477 | 0.499 | 0.345 | 0.366 | 0.345 | 0.381 | 0.353 | 0.823 | 0.6 | 0.62 | 0.484 | 0.225 | 0.706 | 0.656 | 0.771 | 0.504 | 0.434
NCI-H727 | 0.702 | 0.765 | 0.743 | 0.66 | 0.781 | 0.585 | 0.587 | 0.561 | 0.451 | 0.407 | 0.601 | 0.525 | 0.4 | 0.291 | 0.304 |  | 0.79 | 0.874 | 0.699 | 0.629
NCI-H838 | 0.941 | 0.8 | 0.893 | 0.894 | 0.903 | 0.249 | 0.295 | 0.254 | 0.208 | 0.199 | 0.926 | 0.704 | 0.699 | 0.287 | 0.283 | 0.924 | 0.657 | 0.43 | 0.273 | 0.208
NCI-H1355 | 0.865 | 0.944 | 0.95 | 0.855 | 0.995 | 0.625 | 0.537 | 0.447 | 0.456 | 0.177 | 0.941 | 0.794 | 0.723 | 0.385 | 0.255 | 0.831 | 0.684 | 0.644 | 0.443 | 0.27
NCI-H1395 | 0.949 | 0.952 | 0.911 | 1.08 | 0.992 | 0.657 | 0.709 | 0.676 | 0.593 | 0.53 | 0.863 | 0.757 | 1.23 | 0.602 | 0.511 | 0.439 | 0.434 | 0.428 | 0.387 | 0.401

— the supplement of paper PMC10307832
